Data: PMC11025887, “The SARM1 TIR domain produces glycocyclic ADPR molecules as minor products” (PLOS ONE, 2024)

Molecular target: T1, Drosophila SARM1 TIR domain (Drosophila melanogaster, UniProt Q6IDD9)
T1 construct: gene Sarm; TIR domain only; N-terminal 6xHis tag kept; codon optimized; E. coli BL21(DE3)
T1 sequence (Q6IDD9 837-981 limits assumed): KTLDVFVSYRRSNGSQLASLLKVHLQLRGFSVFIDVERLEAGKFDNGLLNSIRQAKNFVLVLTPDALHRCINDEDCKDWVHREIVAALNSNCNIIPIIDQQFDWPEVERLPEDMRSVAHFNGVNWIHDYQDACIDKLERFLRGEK
Experiment: LC-MS/MS of NAD+ and products
Assay type: biochemical
Details: […] protein; […] NAD+; […] HEPES-KOH pH […]; […] NaCl; […] TCEP; […] C; […] h; main product cADPR

With `NC(=O)c1ccc[n+]([C@@H]2O[C@H](COP(=O)(O)OP(=O)(O)OC[C@H]3O[C@@H](n4cnc5c(N)ncnc54)[C@H](O)[C@@H]3O)[C@@H](O)[C@H]2O)c1` [NAD^+] as the compound, how does the “LC-MS/MS of NAD+ and products” value read?
The value was “SARM1 TIR domains consumed NAD^+ efficiently”.
